The source of these data is US8198315B2, “Therapeutic substituted cyclic lactams” (Allergan, Inc., priority 2007, dated 2012).

Data set [1] has as its target T1, EP2 (Homo sapiens, UniProt P43116). In words: EP2 binding (Ki). The source says: (§1) U.S. patent application Ser. No. 11/553,143, filed on Oct. 26, 2006, incorporated by reference herein, describes the methods used to obtain the in vitro data in the table below.
Data set [2] concerns the target T1, EP2. Briefly: EP2 cAMP assay. It counts as cell-based.
Excerpt: as §1
For orientation: Changes in cAMP serve as a functional read-out for many G protein-coupled receptors.

The target in another data set is T2, hDP (Homo sapiens, UniProt Q13258).
T2 sequence (Q13258 1-359): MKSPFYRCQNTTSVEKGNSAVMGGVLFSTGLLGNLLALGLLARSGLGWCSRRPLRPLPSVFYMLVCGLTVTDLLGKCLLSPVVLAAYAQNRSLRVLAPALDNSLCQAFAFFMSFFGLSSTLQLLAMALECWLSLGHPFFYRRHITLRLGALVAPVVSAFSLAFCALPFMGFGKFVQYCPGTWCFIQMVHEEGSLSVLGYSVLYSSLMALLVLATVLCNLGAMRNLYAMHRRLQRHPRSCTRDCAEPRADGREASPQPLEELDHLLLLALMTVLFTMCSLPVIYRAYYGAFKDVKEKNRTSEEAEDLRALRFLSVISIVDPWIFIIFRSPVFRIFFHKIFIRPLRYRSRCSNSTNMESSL
In words: Other receptors functional assay, hDP. Format: cell-based.
Excerpt: as §1

The next data set has as its target T3, hEP3A (Homo sapiens, UniProt P43115).
T3 sequence (P43115 1-390): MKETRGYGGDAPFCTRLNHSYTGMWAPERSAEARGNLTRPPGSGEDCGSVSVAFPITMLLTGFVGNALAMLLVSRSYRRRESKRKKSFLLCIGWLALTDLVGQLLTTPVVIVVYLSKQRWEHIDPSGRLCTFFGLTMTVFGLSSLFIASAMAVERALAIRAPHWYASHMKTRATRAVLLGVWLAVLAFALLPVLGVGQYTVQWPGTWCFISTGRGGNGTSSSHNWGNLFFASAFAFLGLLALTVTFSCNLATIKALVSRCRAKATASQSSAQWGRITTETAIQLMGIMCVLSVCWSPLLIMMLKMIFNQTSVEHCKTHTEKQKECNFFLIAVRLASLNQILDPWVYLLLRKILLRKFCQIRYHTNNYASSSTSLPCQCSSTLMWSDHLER
In words: Other receptors functional assay, hEP3A. It counts as cell-based.
Excerpt: as §1

The target of a further data set is hIP (Homo sapiens, UniProt P43119). In words: Other receptors functional assay, hIP. It counts as cell-based.
Chain of hIP (P43119 whole entry): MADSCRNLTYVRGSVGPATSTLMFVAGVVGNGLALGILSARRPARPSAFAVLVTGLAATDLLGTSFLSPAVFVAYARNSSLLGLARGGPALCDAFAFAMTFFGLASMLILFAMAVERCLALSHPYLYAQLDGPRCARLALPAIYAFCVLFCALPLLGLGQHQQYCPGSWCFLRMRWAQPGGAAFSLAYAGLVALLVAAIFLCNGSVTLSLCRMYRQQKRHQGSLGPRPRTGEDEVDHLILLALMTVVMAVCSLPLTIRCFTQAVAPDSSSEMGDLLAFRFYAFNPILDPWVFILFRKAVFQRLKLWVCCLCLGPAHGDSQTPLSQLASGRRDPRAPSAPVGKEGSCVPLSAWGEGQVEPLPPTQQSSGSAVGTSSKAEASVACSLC
Excerpt: as §1

Data set [3] concerns the target T1, EP2. Briefly: EP2 flipr assay. It counts as cell-based.
Excerpt: as §1

Another data set has as its target T4, hTP (Homo sapiens, UniProt P21731).
T4 sequence (P21731 1-343): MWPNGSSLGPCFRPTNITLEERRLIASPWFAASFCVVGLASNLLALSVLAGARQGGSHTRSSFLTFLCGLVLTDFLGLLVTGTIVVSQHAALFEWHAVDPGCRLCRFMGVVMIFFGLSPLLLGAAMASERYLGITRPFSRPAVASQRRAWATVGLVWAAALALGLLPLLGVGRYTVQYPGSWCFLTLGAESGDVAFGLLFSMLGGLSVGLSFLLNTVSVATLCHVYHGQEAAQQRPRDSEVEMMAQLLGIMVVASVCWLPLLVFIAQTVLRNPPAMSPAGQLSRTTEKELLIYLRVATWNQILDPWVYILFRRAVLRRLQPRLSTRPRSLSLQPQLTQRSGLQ
In words: Other receptors functional assay, hTP. It counts as cell-based.
Excerpt: as §1

Data set [4] addresses T5, EP4 (Homo sapiens, UniProt P35408). Briefly: EP4 flipr assay. The conditions noted are these: read-out: EP4 data flip EC50. Format: cell-based.
Excerpt: as §1

Data set [5] concerns the target T5, EP4. In words: EP4 binding (Ki).
Excerpt: as §1

For data set [6], the system named is normotensive dogs. Briefly: Intraocular pressure in normotensive dogs. It counts as in vivo, dog. The conditions noted are these: once daily for 5 days, at 78 h. On the procedure:
(§2) U.S. Pat. No. 7,091,231 describes the methods used to carry out the tests reported below.
(§3) 5-[(R)-1-((S)-3-Hydroxyoctyl)-5-oxopyrrolidin-2-ylmethoxymethyl]-thiophene-2-carboxylic isopropyl ester was tested in normotensive dogs at 2 concentrations, dosing once daily for 5 days. At 0.1%, the maximum intraocular pressure (TOP) decrease from baseline was 8 mmHg (47%) at 78 h; the maximum ocular surface hyperemia (OSH) score was 2.25 at 50 h. At 0.01%, the maximum TOP decrease from baseline was 6.1 mmHg (35%) at 78 h; the maximum OSH score was 1.7 at 30 h. This compound was also tested in laser-induced hypertensive monkeys, using one single day dose. At 0.1%, the maximum TOP decrease from baseline was 17 mmHg (48%) at 6 h.

Data set [7] relates to laser-induced hypertensive monkeys. Briefly: Intraocular pressure in laser-induced hypertensive monkeys. Format: in vivo, monkey. The conditions noted are these: 0.1%, one single day dose, at 6 h. The method, then:
as §2, §3

Data set [8] relates to normotensive dogs. In words: Ocular surface hyperemia in normotensive dogs. Format: in vivo, dog. The conditions noted are these: once daily for 5 days. On the procedure:
as §2, §3

pEC50, pKi: −log10 of the molar value.

T1 sequence (P43116 whole entry): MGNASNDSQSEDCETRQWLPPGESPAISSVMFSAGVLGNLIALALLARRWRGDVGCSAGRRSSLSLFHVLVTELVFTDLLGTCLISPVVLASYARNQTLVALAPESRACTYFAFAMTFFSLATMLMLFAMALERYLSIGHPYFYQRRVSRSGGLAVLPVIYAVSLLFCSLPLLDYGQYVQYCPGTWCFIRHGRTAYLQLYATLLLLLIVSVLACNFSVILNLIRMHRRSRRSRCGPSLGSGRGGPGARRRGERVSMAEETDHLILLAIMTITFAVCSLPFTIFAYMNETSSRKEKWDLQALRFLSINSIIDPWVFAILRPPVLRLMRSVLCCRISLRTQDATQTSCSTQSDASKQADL
T5 sequence (P35408 whole entry): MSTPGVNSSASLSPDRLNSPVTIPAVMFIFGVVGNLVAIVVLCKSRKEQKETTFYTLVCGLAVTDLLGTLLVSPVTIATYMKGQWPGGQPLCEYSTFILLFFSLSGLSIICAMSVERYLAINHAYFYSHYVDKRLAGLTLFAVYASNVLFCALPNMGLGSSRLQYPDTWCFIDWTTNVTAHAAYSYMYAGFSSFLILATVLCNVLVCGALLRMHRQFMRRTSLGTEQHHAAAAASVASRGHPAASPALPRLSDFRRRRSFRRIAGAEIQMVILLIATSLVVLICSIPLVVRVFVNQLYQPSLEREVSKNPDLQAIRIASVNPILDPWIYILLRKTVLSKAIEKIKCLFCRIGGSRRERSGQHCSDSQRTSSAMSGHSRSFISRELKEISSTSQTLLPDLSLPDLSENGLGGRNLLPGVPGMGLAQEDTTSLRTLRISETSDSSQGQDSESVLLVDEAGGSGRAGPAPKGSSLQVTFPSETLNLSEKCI

As to `CCCC1(C(O)CCCN2C(=O)CC[C@@H]2COCc2ccc(C(=O)O)s2)CCC1` (mixture of isomers) [Example 4, 5-{(R)-1-[4-Hydroxy-4-(1-propylcyclobutyl)-butyl]-5-oxopyrrolidin-2-ylmethoxymethyl}-thiophene-2-carboxylic acid], the pKi – broadly, −log10 of the Ki, conventionally taken in molar units – at EP2 [1] is 5.92. In addition, the negative-log EC50 (pEC50) (commonly −log10 of the EC50, conventionally taken in molar units) at EP2 [2] is 7.70; at hDP it was 6.67; at hEP3A, < 5.00; on hIP, < 5.00; on EP2 [3], < 5.00; on hTP, < 5.00.

As to `CCCCC[C@H](O)CCN1C(=O)CC[C@@H]1COCc1ccc(C(=O)O)s1` [Example 1, 5-[(R)-1-((S)-3-Hydroxyoctyl)-5-oxopyrrolidin-2-ylmethoxymethyl]-thiophene-2-carboxylic acid], the pKi at EP2 [1] is 5.54; on EP4 [5], 5.06. Moreover, the negative-log EC50 (pEC50) is 7.72 at EP2 [2]; 8.17 at hDP; 5.65 at hEP3A; 5.80 at EP2 [3]; 5.11 on EP4 [4]; 5.31 at hTP.

Regarding `CCCCC[C@H](O)CCN1C(=O)CC[C@@H]1COCc1ccc(C(=O)NS(C)(=O)=O)s1` [Example 2, N-{5-[(R)-1-((S)-3-Hydroxy-octyl)-5-oxopyrrolidin-2-ylmethoxymethyl]-thiophene-2-carbonyl}-methanesulfonamide], the pEC50 on hDP is 6.71; at hEP3A it was 5.69; at hIP it was < 5.00; at hTP it was < 5.00.

As to `CCCCC[C@H](O)CCN1C(=O)CC[C@@H]1COCc1ccc(C(=O)NCC)s1` [Example 3, 5-[(R)-1-((S)-3-Hydroxy-octyl)-5-oxopyrrolidin-2-ylmethoxymethyl]-thiophene-2-carboxylic acid ethylamide], the negative logarithm of the EC50 (pEC50) on hDP, on hIP and on hTP was < 5.00 throughout.

For `CCCCC[C@H](O)CCN1C(=O)CC[C@@H]1COCc1ccc(C(=O)OC(C)C)s1` [Example 5, 5-[(R)-1-((S)-3-Hydroxyoctyl)-5-oxopyrrolidin-2-ylmethoxymethyl]-thiophene-2-carboxylic isopropyl ester], the figures for the “maximum intraocular pressure decrease from baseline” value (in the data set with normotensive dogs [6] (0.01%); with normotensive dogs [6] (0.1%); in data set [7]) were 6.1 mmHg, 8 mmHg and 17 mmHg, respectively. The “maximum intraocular pressure decrease from baseline (percent)” value came to 35% in the data set on normotensive dogs [6] (0.01%), 47% in the data set on normotensive dogs [6] (0.1%) and 48% in data set [7]. Moreover, the “maximum ocular surface hyperemia (OSH) score” value in the data set with normotensive dogs [8] (0.01%, at 30 h) is given as 1.7; with normotensive dogs [8] (0.1%, at 50 h) it was 2.25.
